From PMC10447463, “Data-mining unveils structure–property–activity correlation of viral infectivity enhancing self-assembling peptides” (Nature Communications, 2023)
Like-named read-outs stand apart in the source and are kept apart here.

Assays:
[1] = Zeta-potential measurement; assay type: physicochemical; conditions: for Zeta-pot. / mV: zeta potential of peptide, Fig S15 source data
How it was run: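 Zeta potentials of aggregated peptides come from electrophoretic mobility (Smoluchowski model) in 1 mM KCl after a 1 d RT incubation at 1 mg/mL in PBS, pH 7.4.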

[2] = ref sieste 2021 or Schilling2019, cited from earlier work
Excerpt: Supplement 41467_2023_40663_MOESM7_ESM.zip/FigS17.csv, table | column: Conversion Rate / % ( from sieste 2021 or Schilling2019)

[3] = Turbidity, derived count rate of scattered light; assay type: physicochemical; conditions: for Log Count Rate: log of derived count rate; for Count Rate: turbidity
How it was run: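 Samples: 1 mg/mL in PBS pH 7.4 (from DMSO), 1 d at RT, then diluted in 1 mM KCl immediately before measurement. Triplicates, two independent runs averaged.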

TZM-bl cells = assay type: cell-based; conditions: CellTiter-Glo, mean of n = 3 replicates; for viability 0.26 µM: peptide 0.26 µM; for viability 1.3 µM: peptide 1.3 µM; for viability 6.5 µM: peptide 6.5 µM
How it was run: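 Viability of TZM-bl cells (10,000 seeded) after 3 days with serially diluted peptides, measured by CellTiter-Glo luminescence. Values normalized to 100% metabolic activity; triplicates.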

[4] = previously reported peptides only
[5] = Fig S8 panels A, C, asymmetric log errors
[6] = Fig S8 panels B, D, derived count rate of scattered light
[7] = category 1 or 0 from count rate, key not given
[8] = derived count rate from zeta measurement, mean
[9] = derived count rate of scattered light
[10] = derived count rate of scattered light, mean, std deviation in next column
[11] = derived count rate of scattered light, mean, std deviation in separate column

Substance	Zeta Pot. / mV [1] [mV]	Zeta category ( +1 = if > 4 mV;-1 = if < -4 mV; 0 = -4mV to 4 mV) [1]	Zeta category ( +1 = if > 4 mV;-1 = if < -4 mV; 0 = -4mV to 4 mV) ([1]; category from zeta potential)	Zeta Pot. / mV ([1]; mean, Std Zeta in next column) [mV]	Zeta Pot. / mV ([1]; mean, Std in separate column) [mV]	Zeta-pot. / mV [1] [mV]	Conversion Rate / % ( from sieste 2021 or Schilling2019) [2, 4] [%]	Log Count Rate [3, 5]	Log Count Rate ([3]; Fig S8 panels B, D)	Count Rate [3, 6]	Zeta Count Rate Category ([3]; category 1 / 0, no key given)	Zeta Count Rate Category [3, 7]	Zeta Count Rate / kcps [3, 8] [kcps]	Zeta Count Rate / kcps [3, 10] [kcps]	viability 0.26 µM (TZM-bl cells)	viability 1.3 µM (TZM-bl cells)	viability 6.5 µM (TZM-bl cells)	Conversion Rate / % ( from sieste 2021 or Schilling2019) [2] [%]	Zeta Count Rate Category ([3]; category 1/0, no key printed)	Zeta Count Rate / kcps [3, 11] [kcps]	further results
KIKQIINMWQ [JG2]	15.37	1 (+1 = if > 4 mV)	1 (+1 = if > 4 mV)	15.37	15.37	15.37	86	2.789	2.789	615.53	1	1	615.5	615.5	91.29	92.88	83.88				Zeta category ( +1 = if > 4 mV;-1 = if < -4 mV; 0 = -4mV to 4 mV) ([1]; FigS26): 1 (+1 = if > 4 mV); Zeta Count Rate / kcps [3, 9]: 615.5 kcps; Zeta Count Rate Category ([3]; key not given): 1
KFKFQF [JJA6]		-1 (-1 = if < -4 mV)	-1 (-1 = if < -4 mV)	-11.03	-11.03	-11.03						1		183.4	101.2	100.3	102.1	83	1	183.4	
KAKAQANMWQ [JG3]		-1 (-1 = if < -4 mV)	-1 (-1 = if < -4 mV)	-19.63	-19.63	-19.63						0		56.17	106.8	106.3	103.1	65	0	56.17	
CKFKFQFNMWQ [BL2]		1 (+1 = if > 4 mV)	1 (+1 = if > 4 mV)	17.03	17.03	17.03						1		142.5	106	95.99	75.41	96	1	142.5	
CKFKFQF [BL4]		1 (+1 = if > 4 mV)	1 (+1 = if > 4 mV)	19.73	19.73	19.73		3.725	3.725	5303.37		1		5303	97.07	99.36	84.09	95	1	5303	
CKIKQIINMWQ [MG5a / CK17]	13.4	1 (+1 = if > 4 mV)	1 (+1 = if > 4 mV)	13.4	13.4	13.4	50	3.92	3.92	8316.83	1	1	8317	8317	108.4	105.1	87.21			8317	Zeta Count Rate / kcps [3, 9]: 8317 kcps; Zeta Count Rate Category ([3]; key not given): 1
